Columns and labels:
KDM4C = target: T1, KDM4C (Homo sapiens, UniProt Q9H3R0); assay: Histone lysine demethylase immunofluorescence assay, U2OS cells transfected with KDM4C; format: cell-based; settings: U2OS cells transfected with pCMVHA KDM4C; mark detected H3K9me3; 20 hours
T1 construct: Full length; host or cells: U2OS
T1 sequence (Q9H3R0 1-1056): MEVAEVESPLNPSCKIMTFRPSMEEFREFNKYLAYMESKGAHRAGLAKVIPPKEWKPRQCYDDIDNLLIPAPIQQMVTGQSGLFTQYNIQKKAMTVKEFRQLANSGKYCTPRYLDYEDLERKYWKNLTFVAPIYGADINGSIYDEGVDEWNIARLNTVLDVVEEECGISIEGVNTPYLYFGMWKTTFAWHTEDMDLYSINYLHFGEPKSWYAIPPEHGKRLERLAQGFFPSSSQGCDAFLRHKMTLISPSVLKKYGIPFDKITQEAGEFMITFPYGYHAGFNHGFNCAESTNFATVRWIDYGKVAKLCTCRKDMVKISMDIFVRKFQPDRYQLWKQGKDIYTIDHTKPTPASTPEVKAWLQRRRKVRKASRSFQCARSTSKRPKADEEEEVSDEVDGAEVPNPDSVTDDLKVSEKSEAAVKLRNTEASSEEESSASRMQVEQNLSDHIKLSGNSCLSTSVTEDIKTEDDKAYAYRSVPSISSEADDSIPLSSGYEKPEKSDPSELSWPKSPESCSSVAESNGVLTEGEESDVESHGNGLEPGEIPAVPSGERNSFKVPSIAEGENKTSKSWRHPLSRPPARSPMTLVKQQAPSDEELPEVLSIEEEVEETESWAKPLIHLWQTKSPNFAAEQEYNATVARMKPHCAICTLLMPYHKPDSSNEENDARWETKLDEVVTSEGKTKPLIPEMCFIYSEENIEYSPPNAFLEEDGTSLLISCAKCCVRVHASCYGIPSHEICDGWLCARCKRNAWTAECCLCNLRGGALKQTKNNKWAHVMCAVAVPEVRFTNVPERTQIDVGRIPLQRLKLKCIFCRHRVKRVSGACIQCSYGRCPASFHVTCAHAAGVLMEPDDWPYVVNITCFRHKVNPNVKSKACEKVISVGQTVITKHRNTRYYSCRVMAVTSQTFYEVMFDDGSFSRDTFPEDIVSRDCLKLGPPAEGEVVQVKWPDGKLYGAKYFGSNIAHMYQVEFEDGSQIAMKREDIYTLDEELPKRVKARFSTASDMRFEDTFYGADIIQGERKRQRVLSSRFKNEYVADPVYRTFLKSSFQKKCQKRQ
Description: U2OS cells were seeded 24 hours before transfection. Transfection was performed with Fugene HD transfection reagent as recommended by the manufacturer. 6 hours after transfection, the cells were harvested and seeded into multi well plates into media containing compound. The media used was DMEM containing 10% FBS and pen/strep. 20 hours after incubation of cells with compounds, the cells were washed in PBS, harvested by fixation with formaldehyde 4% aqueous solution, and washed in PBS. Subsequently, the cells were permeabilized in PBS with 0.2% Triton X-100 for. Blocking was performed in PBS with 0.2% Triton X-100 and 5% FBS. The cells were incubated with primary antibodies in blocking solution over night at 4° C. The primary antibodies used in the assays were HA.11 (Covance, MMS-101P) and the antibody detecting the mark specified in the table below. After incubation with primary antibodies, the cells were washed with PBS, incubated with secondary antibodies (Alexa fluor 594 goat anti rabbit IgG, Invitrogen, A11012; Alexa flour 488 donkey anti mouse IgG, Invitrogen, A21202) and Hoechst, (Sigma, 33342) in blocking solution, and washed again with PBS. Finally, PBS was added and high throughput imaging and analysis were performed by an IN Cell Analyzer 1000 (GE Healthcare). The robot software analyzed individual cells and divided these into HA+ (transfected cells) and HA− (non-transfected cells). The IC50 values were based on an average measure of the staining of the mark specified in the table below in the transfected cells.

KDM4C (JMJD2C) = target: T2, KDM4C (JMJD2C) (Homo sapiens, UniProt Q9H3R0); assay: Histone lysine demethylase AlphaLISA assay, KDM4C; format: biochemical; settings: read-out: KDM4C HDME Inhibition IC50
T2 sequence (Q9H3R0 1-349): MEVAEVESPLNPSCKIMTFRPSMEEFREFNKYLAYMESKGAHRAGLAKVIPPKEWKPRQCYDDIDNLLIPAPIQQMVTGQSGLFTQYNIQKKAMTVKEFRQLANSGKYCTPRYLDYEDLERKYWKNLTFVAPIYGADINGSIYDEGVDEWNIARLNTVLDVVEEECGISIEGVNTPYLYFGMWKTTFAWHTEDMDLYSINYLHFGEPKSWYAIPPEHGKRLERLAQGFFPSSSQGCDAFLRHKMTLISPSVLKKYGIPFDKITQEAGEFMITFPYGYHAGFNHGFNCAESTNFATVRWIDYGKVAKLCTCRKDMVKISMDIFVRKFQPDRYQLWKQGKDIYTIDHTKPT
Method in brief: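 Biotinylated methylated H3 peptides (K9, K4, K27 or K36 marks) served as substrate, with 25 μM L-Asc and 10 μM α-KG. Enzymes were preincubated 10 min, then exposed to compounds (3% DMSO solutions) 10 min; product detected by AlphaLISA acceptor and streptavidin donor beads at room temperature in dark.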

KDM7 (PHF8) = target: T3, KDM7 (PHF8) (Homo sapiens, UniProt Q9UPP1); assay: Histone lysine demethylase AlphaLISA assay, KDM7; format: biochemical; settings: read-out: PHF8 HDME Inhibition IC50
T3 construct: KDM7 (PHF8); BRIC; 1-1322; Bac
T3 sequence (Q9UPP1 37-440 limits assumed): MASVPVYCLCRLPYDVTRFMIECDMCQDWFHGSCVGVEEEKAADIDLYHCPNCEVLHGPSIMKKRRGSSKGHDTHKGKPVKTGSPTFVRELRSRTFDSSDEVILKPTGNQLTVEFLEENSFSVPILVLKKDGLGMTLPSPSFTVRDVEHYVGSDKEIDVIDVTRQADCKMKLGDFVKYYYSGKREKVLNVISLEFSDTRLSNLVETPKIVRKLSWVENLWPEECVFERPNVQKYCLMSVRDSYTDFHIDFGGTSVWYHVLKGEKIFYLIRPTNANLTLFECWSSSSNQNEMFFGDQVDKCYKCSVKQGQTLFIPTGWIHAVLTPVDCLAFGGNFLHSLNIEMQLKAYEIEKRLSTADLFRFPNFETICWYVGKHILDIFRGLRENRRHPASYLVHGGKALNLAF
Description: Assays are performed analogously to the protocol described by PerkinElmer (Roy et al. PerkinElmer Technical Note: AlphaLISA #12, April 2011)
Enzymes are dissolved in enzyme buffer and incubated for 10 min before being added to 3% DMSO solutions of compounds in enzyme buffer. Incubated for another 10 minutes, before substrate solution is added and the reaction mixture is incubated at room temperature. 10 μL acceptor beads, suspended in Epigenetic Buffer (Perkin Elmer AL008) from stock, are added and the suspension is incubated in the dark at room temperature, before a suspension of streptavidin donor beads (Perkin Elmer 6760002) in Epigenetic Buffer is added. After incubation at room temperature in the dark the plates are read. […]
BK9M2: Biotin-ARTKQTAR(KMe2)STGGKAPRKQ-NH2 (AnaSpec 64359)
BK9M1: Biotin-ARTKQTAR(KMe1)STGGKAPRKQ-NH2 (AnaSpec 64358) […]
Substrate Solution: Substrate, 25 μM L-Asc, and 10 μM α-KG in Buffer A.

Row | Compound | IC50 (KDM4C) [nM] | IC50 (KDM4C (JMJD2C)) [nM] | IC50 (KDM7 (PHF8)) [nM]
1 | CCN(CC)CCCCNCc1cc(CNC(=O)C(F)(F)F)ccn1 [Compound 1, N-{[2-({[4-(diethylamino)butyl]-amino}methyl)pyridin-4-yl]methyl}-2,2,2-trifluoroacetamide] | 250 to 2500 | > 2500 | 250 to 2500
2 | CN(C)CCCNCc1cc(CN)ccn1 [Compound 3, [2-({[3-(dimethylamino)propyl]-amino}methyl)pyridin-4-yl]methanamine] | > 2500 | > 2500 | 250 to 2500
3 | CCN(CC)CCCCNCc1cc(CN)ccn1 [Compound 5, [2-({[4-(diethylamino)butyl]-amino}methyl)pyridin-4-yl]methanamine] | 250 to 2500 | > 2500 | > 2500
4 | NCc1ccnc(CNCCCCN2CCC2)c1 [Compound 7, [2-({[4-(azetidin-1-yl)butyl]amino}methyl)-pyridin-4-yl]-methanamine] | > 2500 | > 2500 | > 2500
5 | CN(C)CCCCCNCc1cc(CN)ccn1 [Compound 8, [2-({[5-(dimethylamino)pentyl]-amino}methyl)pyridin-4-yl]methanamine] | 250 to 2500 | > 2500 | > 2500
6 | COc1ccccc1CN1CCC(NC(=O)CNCc2cc(CN)ccn2)CC1 [Compound 9, 2-({[4-(aminomethyl)pyridin-2-yl]methyl}amino)-N-{1-[(2-methoxyphenyl)methyl]-piperidin-4-yl}acetamide] | > 2500 | > 2500 | > 2500
7 | CN(C)CCCCNCc1cc(CNC2CC2)ccn1 [Compound 10, N-{[2-({[4-(dimethylamino)butyl]-amino}methyl)pyridin-4-yl]methyl}-cyclopropanamine] | > 2500 | > 2500 | > 2500
8 | CC1CCCCN1CCCNCc1cc(CNC2CC2)ccn1 (stereo not shown) [Compound 11, N-{[2-({[3-(2-methylpiperidin-1-yl)propyl]amino}methyl)-pyridin-4-yl]methyl}-cyclopropanamine] | > 2500 | > 2500 | > 2500
9 | C(=N\C1CC1)/c1ccnc(CNCCCCN2CCC2)c1 [Compound 44, N-{[2-({[4-(azetidin-1-yl)butyl]amino}methyl)-pyridin-4-yl]methylidene}-cyclopropanamine] | – | < 250 | > 2500
10 | CN(CCCn1cccn1)C(=O)CNCc1cc(/C=N/C2CC2)ccn1 [Compound 52, 2-[({4-[N-cyclopropyl-carboximidoyl]-pyridin-2-yl}methyl)amino]-N-methyl-N-[3-(1H-pyrazol-1-yl)propyl]acetamide] | > 2500 | 250 to 2500 | –
11 | CCN(CC)C(=O)CNCc1cc(/C=N/CCC2CCCCC2)ccn1 [Compound 57, 2-[({4-[[(2-cyclohexylethyl)imino]-methyl]pyridin-2-yl}methyl)amino]-N,N-diethylacetamide] | – | 250 to 2500 | > 2500
12 | CCN(CC)C(=O)CNCc1cc(C=O)ccn1 [Compound 105, N,N-diethyl-2-{[(4-formylpyridin-2-yl)methyl]amino}-acetamide] | > 2500 | > 2500 | –

Other lines, results leading:

Row | IC50 (KDM4C) [nM] | IC50 (KDM4C (JMJD2C)) [nM] | IC50 (KDM7 (PHF8)) [nM] | Compound
13 | 250 to 2500 | 250 to 2500 | 250 to 2500 | CCN(CCN(C)C)C(=O)CNCc1cc(CN)ccn1 [Compound 4, 2-({[4-(aminomethyl)pyridin-2-yl]methyl}amino)-N-[2-(dimethylamino)ethyl]-N-ethylacetamide]
14 | > 2500 | > 2500 | 250 to 2500 | CCN(CC)CCCCN(Cc1cc(CNC(=O)C(F)(F)F)ccn1)C(=O)C(F)(F)F [Compound 6, N-[4-(diethylamino)butyl]-- 2,2,2-trifluoro-N-({4-[(trifluoroacetamido)-methyl]pyridin-2-yl}methyl)acetamide]
15 | – | > 2500 | 250 to 2500 | c1ccc(CN2CCC[C@H]2CNCc2cc(CNCC3CC3)ccn2)cc1 [Compound 16, {[(2S)-1-benzylpyrrolidin-2-yl]methyl}[(4-{[(cyclopropylmethyl)-amino]methyl}pyridin-2-yl)methyl]amine]
16 | – | > 2500 | > 2500 | CCN(CCN(C)C)C(=O)CNCc1cc(CNC(=O)C(F)(F)F)ccn1 [Compound 25, N-[(2-{[({[2-(dimethylamino)ethyl]-(ethyl)carbamoyl}-methyl)amino]methyl}-pyrtdin-4-yl)methyl]-2,2,2-trifluoroacetamide]
17 | – | 250 to 2500 | > 2500 | CCCCCCCC/N=C/c1ccnc(CNCC(=O)N(CC)CC)c1 [Compound 58, N,N-diethyl-2-[({4-[(octylimino)methyl]-pyridin-2-yl}methyl)amino]-acetamide]
18 | – | > 2500 | 250 to 2500 | CCN(CC)CCCCNCc1cc(/C=N/CCOC)ccn1 [Compound 60, [4-(diethylamino)butyl]-({4-[[(2-methoxyethyl)imino]-methyl]pyridin-2-yl}methyl)amine]
19 | – | 250 to 2500 | > 2500 | CCN(CCN(C)C)C(=O)CNCc1cc(C2OCC(Cc3ccccc3)CN2C(=O)C(F)(F)F)ccn1 (stereo not shown) [Compound 90, 2-[({4-[5-benzyl-3-(trifluoroacetyl)-1,3-oxazinan-2-yl]pyridin-2-yl}methyl)amino]-N-[2-(dimethylamino)-ethyl]-N-ethylacetamide]
20 | – | 250 to 2500 | > 2500 | CCN(CCN(C)C)C(=O)CNCc1cc(C2OCC3(CC3)CN2C(=O)C(F)(F)F)ccn1 (stereo not shown) [Compound 91, N-[2--(dimethylamino)-ethyl]-N-ethyl-2-[({4-[7-(trifluoroacetyl)-5-oxa-7-azaspiro[2.5]-octan-6-yl]pyridin-2-yl}methyl)amino]-acetamide]
21 | > 2500 | > 2500 | – | CC(C)C[C@H](NCc1cc(/C=N/CCO)ccn1)C(=O)N1CCCCC1 [Compound 95, (2S)-2-[({4-[[(2-hydroxyethyl)imino]-methyl]pyridin-2-yl}methyl)amino]-4-methyl-1-(piperidin-1-yl)pentan-1-one]

Reference: patent publication US9650339B2, “Inhibitors of histone demethylases” (Gilead Sciences, Inc., priority 2013, dated 2017)
